From patent US5185442A, “New diazepines substituted in the 6-position, processes for their preparation and their use as pharmaceutical compositions” (Boehringer Ingelheim KG, priority 1991, dated 1993)

Target: T1, PAF receptor (vital human blood platelets) (Homo sapiens, UniProt P25105)
T1 construct: endogenous in cells; host or cells: vital human blood platelets (thrombocytes) from blood samples of healthy donors, purified on Sepharose CL-2B
Test: [3H]PAF receptor binding to vital human blood platelets
Conditions: [3H]PAF 30 pmolar, 90 minutes, ambient temperature, Ki calculated from IC50
Experimental: [^3 H]PAF receptor binding to vital human blood platelets
This experiment determined the competitive interaction of the test substances (in this case PAF-antagonists) with the known interaction of the radioligand [^3 H]PAF to the same receptor.
The bonding studies were carried out on vital human thrombocytes. Blood samples from healthy donors were diluted with ACD buffer and centrifuged (15 minutes, 160×g). The platelet-rich plasma was purified by chromatography on Sepharose CL-2B (for eluting: HEPES buffer, pH 7.4, 20° C.).
Defined quantities (e.g., 800 μl) of the platelet suspension were incubated for 90 minutes at ambient temperature with:
a) a 30 pmolar [^3 H]PAF solution diluted with buffer;
b) a 30 pmolar [^3 H]PAF solution which simultaneously contains a μmolar (non-labelled) PAF solution; and
c) a 30 pmolar [^3 H]PAF solution and the solutions of the test substances (different concentrations).
Incubation a) was used to determine total binding. Incubation b) was used to determine non-specific binding.
The reaction was stopped by vacuum filtering. The filters with the blood platelets were mixed with scintillation liquid and the residual radioactivity was measured in a counter. The specific binding was obtained from the total binding minus the non-specific binding. […]

T1 sequence (P25105 whole entry): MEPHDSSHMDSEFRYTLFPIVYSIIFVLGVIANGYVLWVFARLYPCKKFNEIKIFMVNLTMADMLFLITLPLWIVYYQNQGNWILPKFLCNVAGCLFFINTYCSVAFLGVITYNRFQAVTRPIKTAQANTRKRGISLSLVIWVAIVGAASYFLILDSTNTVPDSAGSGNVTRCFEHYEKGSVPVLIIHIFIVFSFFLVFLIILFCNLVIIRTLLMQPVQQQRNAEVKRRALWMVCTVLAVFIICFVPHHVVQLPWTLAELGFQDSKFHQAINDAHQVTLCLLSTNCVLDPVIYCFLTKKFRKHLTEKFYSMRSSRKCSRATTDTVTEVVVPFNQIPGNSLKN

SMILES | Ki
Cc1nnc2n1-c1sc3c(c1C(c1ccc(CCc4ccc(C(F)(F)F)cc4)cc1)=N[C@H]2C)CCC3 [Compound 2] | 0.47 nM
Cc1nnc2n1-c1sc3c(c1C(c1ccc(CCc4ccc(C(F)(F)F)cc4)cc1)=NC2C)CCC3 (racemic) [Compound 1] | 0.79 nM
